Laboratory results published in PubChem BioAssay AID1259408 (Genetic Toxicology Data Bank (GENE-TOX), 2018).
The source made the active and inactive calls. The rule behind the calls is not given here.

Tested on: GENE-TOX genotoxicity assays, various organisms and cells
Assay: GENE-TOX mutagenicity studies
Details: for call: Assay Type: In vivo carcinogenicity studies
[1] = Species/Cell Type: Drosophila melanogaster, Assay Type: Sex-linked recessive lethal gene mutation, Assay Code: SRL+, Evaluation Type: Evaluation A (Pre-1980)
[2] = Species/Cell Type: Escherichia coli polA (W3119 vs P3478), Assay Type: Rec-assay, DNA effects (bacterial DNA repair), Assay Code: RE1+, Evaluation Type: Evaluation A (Pre-1980)
[3] = Species/Cell Type: Human lymphocytes, Assay Type: Sister-chromatid exchange (SCE) in vivo, Assay Code: SCY+, Evaluation Type: Evaluation B (Post-1980)
[4] = Species/Cell Type: Mammalian polychromatic erythrocytes, Assay Type: Micronucleus test, chromosome aberrations, Assay Code: MNTT, Evaluation Type: Evaluation A (Pre-1980)
[5] = Species/Cell Type: Nonhuman, Assay Code: CCGT, Evaluation Type: Evaluation A (Pre-1980)
[6] = Species/Cell Type: Nonhuman, Assay Type: Sister-chromatid exchange (SCE) in vitro, Assay Code: SC2+, Evaluation Type: Evaluation B (Post-1980)
[7] = Species/Cell Type: Nonhuman, Assay Code: CCG+, Evaluation Type: Evaluation A (Pre-1980)
[8] = Species/Cell Type: Nonhuman, Assay Type: Sister-chromatid exchange (SCE) in vivo, Assay Code: SC3+, Evaluation Type: Evaluation B (Post-1980)
[9] = Species/Cell Type: Salmonella typhimurium (one or more of the five standard strains: TA98, TA100, TA1535, TA1537, and TA1538), Assay Type: Histidine reverse gene mutation, Ames assay, Assay Code: SAL+*, Activation: With metabolic activation, Evaluation Type: Evaluation A (Pre-1980)
[10] = Species/Cell Type: Salmonella typhimurium (one or more of the five standard strains: TA98, TA100, TA1535, TA1537, and TA1538), Assay Type: Histidine reverse gene mutation, Ames assay, Assay Code: SAL-, Evaluation Type: Evaluation A (Pre-1980)
[11] = Species/Cell Type: Human, Assay Type: Sister-chromatid exchange (SCE) in vitro, Assay Code: SC1+D, Dose Response: With dose response, Evaluation Type: Evaluation B (Post-1980)

CS(=O)(=O)OCCCCOS(C)(=O)=O
mutagenic call (Species/Cell Type: Arabidopsis species, Assay Type: Gene mutation, Assay Code: ARM+, Evaluation Type: Evaluation A (Pre-1980)): active; positive | mutagenic call (Species/Cell Type: Chinese hamster ovary (CHO) cells, Assay Type: Forward gene mutation at the HPRT locus, Assay Code: CHO+, Evaluation Type: Evaluation B (Post-1980)): active; positive | mutagenic call [1]: active; positive | mutagenic call [2]: active; positive | mutagenic call (Species/Cell Type: Hordeum vulgare (barley), Assay Type: Chromosome aberrations, Assay Code: HOC+D, Dose Response: With dose response, Evaluation Type: Evaluation A (Pre-1980)): active; positive | mutagenic call (Species/Cell Type: Human lymphocytes or leukocytes, Assay Type: Chromosome aberrations in vitro, Assay Code: CY7+D, Dose Response: With dose response, Evaluation Type: Evaluation A (Pre-1980)): active; positive | mutagenic call (Species/Cell Type: Human lymphocytes, Assay Type: Sister-chromatid exchange (SCE) in vitro, Assay Code: SCL+D, Dose Response: With dose response, Evaluation Type: Evaluation A (Pre-1980)): active; positive | mutagenic call [3]: active; positive | mutagenic call (Species/Cell Type: Human, Assay Type: Sister-chromatid exchange (SCE) in vitro, Assay Code: SC1+D, Dose Response: With dose response, Evaluation Type: Evaluation A (Pre-1980)): active; positive | mutagenic call (Species/Cell Type: Mammalian germ cells, Sex: Male, Assay Type: Chromosome aberrations in vivo, Assay Code: CY9T, Evaluation Type: Evaluation A (Pre-1980)): no conclusion | mutagenic call (Species/Cell Type: Mammalian polychromatic erythrocytes, Assay Type: Micronucleus test, chromosome aberrations, Assay Code: MNT+, Evaluation Type: Evaluation B (Post-1980)): active; positive | mutagenic call [4]: no conclusion | mutagenic call (Species/Cell Type: Mouse lymphoma (L5178Y) cells, Assay Type: Forward gene mutation at the thymidine kinase (TK) locus, chromosome aberrations, Assay Code: L51+, Evaluation Type: Evaluation A (Pre-1980)): active; positive | mutagenic call (Species/Cell Type: Mouse, Sex: Male, Assay Type: Sperm morphology, Assay Code: SPI+, Evaluation Type: Evaluation A (Pre-1980)): active; positive | mutagenic call (Species/Cell Type: Neurospora crassa, Assay Type: Forward gene mutation, Assay Code: NEF+, Evaluation Type: Evaluation A (Pre-1980)): active; positive | mutagenic call (Species/Cell Type: Nonhuman bone marrow, Assay Type: Chromosome aberrations, in vivo, Assay Code: CY#+D, Dose Response: With dose response, Evaluation Type: Evaluation A (Pre-1980)): active; positive | call [5]: no conclusion | mutagenic call [6]: active; positive | mutagenic call (Species/Cell Type: Rabbit, Sex: Male, Assay Type: Sperm morphology, Assay Code: SPR+, Evaluation Type: Evaluation A (Pre-1980)): active; positive | mutagenic call (Species/Cell Type: Rodents, Sex: Male, Assay Type: Dominant lethal test, Assay Code: DLT+, Evaluation Type: Evaluation A (Pre-1980)): active; positive

C=CC1CO1 (configuration not stated)
mutagenic call (Species/Cell Type: Nonhuman, Assay Type: Sister-chromatid exchange (SCE) in vivo, Assay Code: SC3+D, Dose Response: With dose response, Evaluation Type: Evaluation B (Post-1980)): active; positive

[Cl][Mo]([Cl])([Cl])([Cl])[Cl]
mutagenic call (Species/Cell Type: Bacillus subtilis (H17 vs M45), Assay Type: Rec-assay, spot test, DNA effects (bacterial DNA repair), Assay Code: REW-, Evaluation Type: Evaluation A (Pre-1980)): inactive; negative

CN(N=O)C(=O)N[C@@H](C=O)[C@@H](O)[C@H](O)[C@H](O)CO
mutagenic call (Species/Cell Type: Arabidopsis species, Assay Type: Gene mutation, Assay Code: ARM+D, Dose Response: With dose response, Evaluation Type: Evaluation A (Pre-1980)): active; positive | mutagenic call (Species/Cell Type: Chinese hamster lung (V79) cells, Assay Type: Forward gene mutation at the HPRT or ouabain locus, Assay Code: V79+, Evaluation Type: Evaluation A (Pre-1980)): active; positive | mutagenic call [2]: active; positive | call [7]: active; positive | mutagenic call [8]: active; positive | mutagenic call (Species/Cell Type: Salmonella typhimurium (one or more of the five standard strains: TA98, TA100, TA1535, TA1537, and TA1538), Assay Type: Histidine reverse gene mutation, Ames assay, Assay Code: SAL+, Evaluation Type: Evaluation A (Pre-1980)): active; positive | mutagenic call (Species/Cell Type: Salmonella typhimurium, Assay Type: Forward and reverse gene mutation, body fluid assay, Assay Code: BFU+, Evaluation Type: Evaluation A (Pre-1980)): active; positive | mutagenic call (Species/Cell Type: Salmonella typhimurium, Assay Type: Forward and reverse gene mutation, host-mediated assay, Assay Code: HMA+, Evaluation Type: Evaluation A (Pre-1980)): active; positive

Cc1ccc2cc3c(ccc4ccccc43)c3c2c1C(O)C3O (configuration not stated)
mutagenic call (Species/Cell Type: Mouse prostate cells, Assay Type: Cell transformation, Assay Code: CTM+D, Dose Response: With dose response, Evaluation Type: Evaluation A (Pre-1980)): active; positive

Brc1ccc(C2CO2)cc1 (configuration not stated)
mutagenic call (Species/Cell Type: Escherichia coli WP2 UVRA, Assay Type: Tryptophan reverse gene mutation, Assay Code: WPU+D, Dose Response: With dose response, Evaluation Type: Evaluation A (Pre-1980)): active; positive

O=C(CCCN1CCC(O)(c2ccc(Cl)cc2)CC1)c1ccc(F)cc1
mutagenic call (Species/Cell Type: Allium cepa, Assay Type: Chromosome aberrations, Assay Code: ALC+D, Dose Response: With dose response, Evaluation Type: Evaluation A (Pre-1980)): active; positive | mutagenic call (Species/Cell Type: Human, Assay Type: Sister-chromatid exchange (SCE) in vitro, Assay Code: SC1T, Evaluation Type: Evaluation B (Post-1980)): no conclusion

CCNc1nc(Cl)nc(NCC)n1 (tested in a mixture with another compound)
mutagenic call (Species/Cell Type: Saccharomyces cerevisiae, Assay Type: Mitotic recombination or gene conversion, Assay Code: YEC-, Evaluation Type: Evaluation A (Pre-1980)): inactive; negative

COc1ccc(N)cc1N
mutagenic call [1]: active; positive | mutagenic call [4]: no conclusion | mutagenic call (Species/Cell Type: Mouse, Sex: Male, Assay Type: Sperm morphology, Assay Code: SPI-, Evaluation Type: Evaluation A (Pre-1980)): inactive; negative | mutagenic call (Species/Cell Type: Neurospora crassa, Assay Type: Aneuploidy, chromosome aberrations, Assay Code: NEN+, Evaluation Type: Evaluation A (Pre-1980)): active; positive | call [7]: active; positive | mutagenic call [8]: active; positive | mutagenic call (Species/Cell Type: Rodents, Sex: Male, Assay Type: Dominant lethal test, Assay Code: DLT-, Evaluation Type: Evaluation A (Pre-1980)): inactive; negative | mutagenic call [9]: active; positive

Cc1cccc2ccc3cc4ccccc4cc3c12
mutagenic call [6]: active; positive | mutagenic call [9]: active; positive

O=c1ccc2ccccc2[nH]1
mutagenic call [10]: inactive; negative

O[C@@H]1c2ccccc2-c2cc3ccc4ccccc4c3cc2[C@H]1O
mutagenic call (Species/Cell Type: Chinese hamster lung (V79) cells, Assay Type: Forward gene mutation at the HPRT or ouabain locus, Assay Code: V79-, Evaluation Type: Evaluation A (Pre-1980)): inactive; negative | mutagenic call (Species/Cell Type: Mouse prostate cells, Assay Type: Cell transformation, Assay Code: CTM-, Evaluation Type: Evaluation A (Pre-1980)): inactive; negative | call [5]: no conclusion | mutagenic call [9]: active; positive | mutagenic call (Species/Cell Type: Syrian hamster embryo (SHE) cells, Assay Type: Cell transformation, clonal assay, Assay Code: CTCT, Evaluation Type: Evaluation A (Pre-1980)): no conclusion

OC(CCl)CCl
mutagenic call [9]: active; positive

O=c1[nH]c(=O)n([C@H]2C[C@H](O)[C@@H](CO)O2)cc1/C=C/Br
mutagenic call (Species/Cell Type: Human lymphocytes, Assay Type: Sister-chromatid exchange (SCE) in vitro, Assay Code: SCL+, Evaluation Type: Evaluation B (Post-1980)): active; positive | mutagenic call [11]: active; positive

CCc1nc(N)nc(N)c1-c1ccc(Cl)cc1
mutagenic call (Species/Cell Type: Salmonella typhimurium (one or more of the five standard strains: TA98, TA100, TA1535, TA1537, and TA1538), Assay Type: Histidine reverse gene mutation, Ames assay, Assay Code: SALT, Evaluation Type: Evaluation A (Pre-1980)): no conclusion

COc1ccccc1-c1ccccc1
mutagenic call (Species/Cell Type: Saccharomyces cerevisiae, Assay Type: Mitotic recombination or gene conversion, Assay Code: YEH-, Evaluation Type: Evaluation A (Pre-1980)): inactive; negative | mutagenic call [10]: inactive; negative

O=[N+]([O-])c1ccc2ccc3c4ccccc4cc4ccc1c2c43
mutagenic call (Species/Cell Type: Chinese hamster ovary (CHO) cells, Assay Type: Forward gene mutation at the HPRT locus, Assay Code: CHO+*, Activation: With metabolic activation, Evaluation Type: Evaluation B (Post-1980)): active; positive

CC(C(=O)O)c1ccc(-c2ccccc2)c(F)c1 (configuration not stated)
mutagenic call [3]: active; positive

CC[N+](C)(CC)CCC[n+]1c(-c2ccccc2)c2cc(N)ccc2c2ccc(N)cc21
mutagenic call (Species/Cell Type: Mammalian cell culture, nonhuman, Assay Type: Micronucleus test in vitro, chromosome aberrations, Assay Code: MN&+, Evaluation Type: Evaluation A (Pre-1980)): active; positive

Nc1ncnc2c1ncn2[C@H]1C[C@H](O)[C@@H](CO)O1
mutagenic call (Species/Cell Type: Glycine max (soybean), Assay Type: Gene mutation, Assay Code: GLM-, Evaluation Type: Evaluation A (Pre-1980)): inactive; negative | mutagenic call (Species/Cell Type: Nonhuman, Assay Type: Sister-chromatid exchange (SCE) in vitro, Assay Code: SC2T, Evaluation Type: Evaluation B (Post-1980)): no conclusion

CN(C)P(=O)(N(C)C)N1CC1
mutagenic call [1]: active; positive | mutagenic call (Species/Cell Type: Human lymphocytes, Assay Type: Sister-chromatid exchange (SCE) in vitro, Assay Code: SCL+D, Dose Response: With dose response, Evaluation Type: Evaluation B (Post-1980)): active; positive | mutagenic call [11]: active; positive | mutagenic call (Species/Cell Type: Nonhuman, Assay Type: Chromosome aberrations in vitro, Assay Code: CY&+, Evaluation Type: Evaluation A (Pre-1980)): active; positive

CC(=O)OCC[C@H](C=O)c1c(O)cc2c(c1O)C(=O)c1c(O)cc(O)cc1C2=O
mutagenic call [9]: active; positive
